Patent EP2951180B1, “2,6,7,8 SUBSTITUTED PURINES AS HDM2 INHIBITORS” (Merck Sharp & Dohme Corp., priority 2013, dated 2014)

Molecular target: T1, HDM2 (Homo sapiens, UniProt Q00987)
T1 construct: Thioredoxin (N); made in house; host or cells: E. coli strain BL21(DE3)Rosetta
Experiment: FRET assay (HDM2 inhibition; method not described in this part)
Format: binding
Settings: Table 5

T1 sequence (Q00987 17-125): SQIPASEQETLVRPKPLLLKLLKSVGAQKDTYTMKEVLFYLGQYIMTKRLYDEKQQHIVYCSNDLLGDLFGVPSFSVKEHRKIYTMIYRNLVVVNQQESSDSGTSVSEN

SMILES: Cc1ccc(Cn2c(-c3cccc(C)c3)nc3nc(C(=O)O)nc(N[C@H](C)C4CC4)c32)cc1 [Example 5.21, 6-{[(1R)-1-cyclopropylethyl]amino}-7-(4-methylbenzyl)-8-(3-methylphenyl)-7H-purine-2-carboxylic acid]
- IC50: 1200 nM
